The target in series [1] is T1, EZH1 (Homo sapiens, UniProt Q92800).
T1 construct: purchased Reaction Biology Corp. (contract assay)
Briefly: Inhibitory activity against EZH1 methyltransferase (radiometric scintillation proximity assay).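 Also: Read-out is methylation of a substrate peptide, captured on streptavidin-coated SPA beads and counted by scintillation, in Tris-HCl buffer at pH 8.0 with 1% DMSO.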 The format is biochemical. To be noted: 2.3 nmol/L enzyme, 90 minutes, room temperature. A general note: In a scintillation proximity assay essentially only radioactivity close to the scintillant gives light.
Procedure: The inhibitory activities of the synthetic compounds against EZH1 or EZH2 methyltransferase were measured. The experiment was conducted by Reaction Biology Corp., and the activity of EZH1 or EZH2 was measured using a radiometric scintillation proximity assay. […] The reaction buffer consisted of 50 mmol/L Tris-HCl (pH 8.0), 50 mmol/L NaCl, 1 mmol/L EDTA, 1 mmoL/L DTT, 1 mmol/L PMSF, and 1% DMSO. Trichloroacetic acid was added to terminate the reaction, and PVT streptavidin-coated SPA beads were added to each reaction solution, followed by further reaction at room temperature for 1 hour again. The methylation value of the substrate peptide was measured using the TopCount NXT plate reader.

Series [2] relates to KARPAS-422 (EZH2 Y641N mutation). Briefly: Cell growth inhibition test, KARPAS-422. Type of series: cell-based. To be noted: KARPAS-422, culture time 7 days, read-out: Cell growth inhibitory activity (GI50, nM) KARPAS-422 (EZH2 Y641N mutation).
Series [3] has as its system Pfeiffer (EZH2 A677G mutation). The series is described as follows: Cell growth inhibition test, Pfeiffer. Type of series: cell-based. To be noted: Homo sapiens, read-out: Cell growth inhibitory activity (GI50, nM) Pfeiffer (EZH2 A677G mutation). How it is done: Each type of the cultured cells was seeded in 6-well plates or 48-96 well plates, and subculture or medium replacement was performed every 3 to 4 days. Next, the cells were subcultured for a total of 7 to 14 days, and then seeded in 96-well plates. 3 to 5 days before the measurement of the effect, the cells were seeded in 96-well plates, and then the absorbance (Tz) on the day of seeding was measured. The absorbance after the reaction was measured by the plate reader device Synergy NeoAlpha (Biotek) using Cell-Titer-Glo Cell Viability Assay (Promega, G7573) according to the attached manual. Based on the absorbance (Tz) measured on the seeding day and the absorbance of each of the DMSO-treated group (C) and the sample-added group (Ti) measured on the day of effect determination, the percentage of cell proliferation inhibition was calculated according to the following Equation 1. [(Ti−Tz)/(C−Tz)]×100 for concentrations for which Ti≥Tz […] for concentrations for which Ti<Tz. [Equation 1]

Series [4] can be described thus: Metabolic stability in human liver microsomes. To be noted: 5 μM compound, 1 mg/mL human liver microsomes, 37° C., NADPH regenerating system. Type of series: in vitro ADME. The protocol: (§1) In order to confirm the metabolic stability of the synthetic compounds in the liver, 5 μM test compound and 1 mg/mL human, dog, rat or mouse liver microsomes were allowed to react with each other at 37° C. in the presence of the NADPH regenerating system for 1 hour. After 1 hour, the reaction was terminated and the supernatant obtained by centrifugation was analyzed by HPLC. With the peak value obtained as the analysis result, the residual amount (%) was calculated using the following equation through the peak value of the test compound after 1 hour of the reaction versus the peak value of the test compound at 0 min. Residual amount (%)=(peak value of test compound after 1 hour of reaction/peak value of test compound at 0 min)×100
In general terms: Liver microsomes are vesicles of endoplasmic reticulum, rich in cytochrome P450 enzymes.

The nature of series [5]: Metabolic stability in mouse liver microsomes. Type of series: in vitro ADME. The note with it: 5 μM compound, 1 mg/mL mouse liver microsomes, 37° C., NADPH regenerating system. The protocol:
as §1

The nature of series [6]: Mouse pharmacokinetics, oral single dose. The format is in vivo. To be noted: plasma, mice (ICR, male), oral single dose 30 mg/kg; for AUC: read-out: Area under oral curve (AUC). The protocol:
Pharmacokinetics of the synthetic compounds as EZH2 inhibitors in mice (ICR, 8-week-old, male) were tested.
The oral administration group was maintained in a fasting state from the day before the test to 4 hours after administration of the test compound. On the day of administration of the test compound, the weight of each animal was measured and each synthetic compound was formulated using a selected solvent based on 30 mg/kg (10 mL/kg). Each test compound was administered orally in a single dose, a certain amount of the blood was taken at a predetermined time, plasma was isolated therefrom, and the concentration of each test compound in the plasma was analyzed using LC-MS/MS (Waters UPLC H-Class/Xevo TQ; Waters, USA). Pharmacokinetic coefficients were calculated by a linear-log trapezoidal summation formula using a non-compartment analysis of the Phoenix™ WinNonlin (Certara, USA) program through the plasma concentration curve over time.

In series [7] the target is EZH2 (Homo sapiens, UniProt Q15910). The series is described as follows: Inhibitory activity against EZH2 methyltransferase (radiometric scintillation proximity assay).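 Also: Read-out is substrate peptide methylation, captured on streptavidin-coated SPA beads and counted by scintillation, with the reaction run in Tris-HCl buffer at pH 8.0 containing 1% DMSO.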 The note with it: Enzyme inhibitory activity (IC50, nM) EZH2, 2.3 nmol/L enzyme, 90 minutes, room temperature.
Sequence of EZH2 (Q15910 whole entry): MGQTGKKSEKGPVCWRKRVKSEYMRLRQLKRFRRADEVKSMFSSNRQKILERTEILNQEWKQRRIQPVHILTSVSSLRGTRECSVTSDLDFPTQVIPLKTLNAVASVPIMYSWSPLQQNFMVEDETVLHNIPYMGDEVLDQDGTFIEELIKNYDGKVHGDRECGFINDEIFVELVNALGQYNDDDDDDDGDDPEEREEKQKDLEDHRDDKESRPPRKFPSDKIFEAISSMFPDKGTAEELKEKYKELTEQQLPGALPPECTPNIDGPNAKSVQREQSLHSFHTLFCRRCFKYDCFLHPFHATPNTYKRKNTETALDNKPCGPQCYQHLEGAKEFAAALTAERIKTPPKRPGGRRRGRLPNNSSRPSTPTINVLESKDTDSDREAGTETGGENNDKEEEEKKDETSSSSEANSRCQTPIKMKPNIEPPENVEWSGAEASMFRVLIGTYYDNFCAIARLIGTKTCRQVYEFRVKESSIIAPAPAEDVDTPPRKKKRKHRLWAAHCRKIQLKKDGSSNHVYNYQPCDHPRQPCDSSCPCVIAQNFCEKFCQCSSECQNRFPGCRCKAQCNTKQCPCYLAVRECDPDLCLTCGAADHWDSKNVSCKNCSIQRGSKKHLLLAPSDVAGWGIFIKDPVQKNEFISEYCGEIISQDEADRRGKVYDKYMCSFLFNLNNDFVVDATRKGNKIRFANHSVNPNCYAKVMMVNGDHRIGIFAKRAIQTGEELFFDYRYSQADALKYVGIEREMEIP
Sequence of EZH2 (O75530 whole entry partner): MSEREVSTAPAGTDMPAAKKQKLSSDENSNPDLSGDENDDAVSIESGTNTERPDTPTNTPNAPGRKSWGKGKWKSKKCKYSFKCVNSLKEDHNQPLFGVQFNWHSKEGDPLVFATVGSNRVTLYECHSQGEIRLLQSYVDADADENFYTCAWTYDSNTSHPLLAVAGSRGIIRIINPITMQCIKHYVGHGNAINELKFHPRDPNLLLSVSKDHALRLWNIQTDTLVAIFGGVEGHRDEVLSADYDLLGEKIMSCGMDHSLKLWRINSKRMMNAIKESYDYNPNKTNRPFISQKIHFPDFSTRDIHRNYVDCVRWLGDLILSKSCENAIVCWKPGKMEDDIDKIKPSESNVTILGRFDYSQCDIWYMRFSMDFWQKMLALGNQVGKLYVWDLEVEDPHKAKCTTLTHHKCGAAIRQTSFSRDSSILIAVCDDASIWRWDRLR
Sequence of EZH2 (Q15022 whole entry partner): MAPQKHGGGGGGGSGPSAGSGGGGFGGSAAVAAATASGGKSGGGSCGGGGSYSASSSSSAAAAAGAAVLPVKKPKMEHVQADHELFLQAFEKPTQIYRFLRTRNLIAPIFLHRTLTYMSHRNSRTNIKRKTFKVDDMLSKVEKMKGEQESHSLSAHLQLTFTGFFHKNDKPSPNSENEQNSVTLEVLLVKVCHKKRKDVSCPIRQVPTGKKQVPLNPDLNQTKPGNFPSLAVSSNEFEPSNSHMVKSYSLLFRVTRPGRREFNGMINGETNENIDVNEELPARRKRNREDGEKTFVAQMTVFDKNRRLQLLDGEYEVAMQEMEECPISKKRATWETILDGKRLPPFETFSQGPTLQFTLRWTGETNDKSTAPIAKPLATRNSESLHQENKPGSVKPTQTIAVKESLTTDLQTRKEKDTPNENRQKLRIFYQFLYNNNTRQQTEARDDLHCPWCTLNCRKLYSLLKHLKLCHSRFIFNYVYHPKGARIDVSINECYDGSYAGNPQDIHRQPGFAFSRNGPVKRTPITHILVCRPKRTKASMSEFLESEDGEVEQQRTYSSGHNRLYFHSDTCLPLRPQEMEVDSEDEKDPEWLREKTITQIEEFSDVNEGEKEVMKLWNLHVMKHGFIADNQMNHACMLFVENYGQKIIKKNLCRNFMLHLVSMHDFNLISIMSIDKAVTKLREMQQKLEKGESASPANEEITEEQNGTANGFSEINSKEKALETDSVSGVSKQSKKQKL
Sequence of EZH2 (Q09028 whole entry partner): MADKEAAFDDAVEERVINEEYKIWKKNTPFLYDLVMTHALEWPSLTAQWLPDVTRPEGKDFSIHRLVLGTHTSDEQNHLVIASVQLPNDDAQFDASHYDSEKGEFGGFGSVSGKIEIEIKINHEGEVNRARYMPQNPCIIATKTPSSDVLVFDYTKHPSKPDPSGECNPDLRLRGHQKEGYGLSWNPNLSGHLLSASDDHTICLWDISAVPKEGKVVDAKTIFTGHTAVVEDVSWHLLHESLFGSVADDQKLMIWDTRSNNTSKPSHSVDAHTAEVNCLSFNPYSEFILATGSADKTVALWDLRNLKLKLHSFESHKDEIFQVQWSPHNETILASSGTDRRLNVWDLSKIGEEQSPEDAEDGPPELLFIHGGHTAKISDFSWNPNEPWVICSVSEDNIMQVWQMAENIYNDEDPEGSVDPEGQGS
Sequence of EZH2 (Q6ZN18 whole entry partner): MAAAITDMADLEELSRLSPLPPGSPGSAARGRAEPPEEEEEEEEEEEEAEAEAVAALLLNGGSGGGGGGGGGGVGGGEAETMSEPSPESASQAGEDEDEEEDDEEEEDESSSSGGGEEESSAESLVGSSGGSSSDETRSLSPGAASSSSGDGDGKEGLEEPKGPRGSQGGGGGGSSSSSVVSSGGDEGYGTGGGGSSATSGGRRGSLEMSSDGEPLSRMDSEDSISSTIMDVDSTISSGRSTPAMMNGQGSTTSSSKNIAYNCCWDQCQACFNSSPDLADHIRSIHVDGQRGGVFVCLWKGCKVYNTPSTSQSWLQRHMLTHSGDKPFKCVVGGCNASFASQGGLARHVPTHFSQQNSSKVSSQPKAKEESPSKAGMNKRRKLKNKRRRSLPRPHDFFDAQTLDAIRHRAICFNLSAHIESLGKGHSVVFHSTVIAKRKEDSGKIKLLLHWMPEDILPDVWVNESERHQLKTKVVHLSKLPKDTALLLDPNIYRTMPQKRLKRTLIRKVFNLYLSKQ
Where [8] appears, read: Homo sapiens, KARPAS-422, 168 h.

Here are results for 11 molecules from US12344618B2, “Heterotricyclic derivative compound and use of same” (HANMI PHARMACEUTICAL CO., LTD., priority 2019, dated 2025).

SMILES strings stand for the structures. Like-named read-outs stand apart in the source and are kept apart here.

T1 sequence (Q92800 whole entry): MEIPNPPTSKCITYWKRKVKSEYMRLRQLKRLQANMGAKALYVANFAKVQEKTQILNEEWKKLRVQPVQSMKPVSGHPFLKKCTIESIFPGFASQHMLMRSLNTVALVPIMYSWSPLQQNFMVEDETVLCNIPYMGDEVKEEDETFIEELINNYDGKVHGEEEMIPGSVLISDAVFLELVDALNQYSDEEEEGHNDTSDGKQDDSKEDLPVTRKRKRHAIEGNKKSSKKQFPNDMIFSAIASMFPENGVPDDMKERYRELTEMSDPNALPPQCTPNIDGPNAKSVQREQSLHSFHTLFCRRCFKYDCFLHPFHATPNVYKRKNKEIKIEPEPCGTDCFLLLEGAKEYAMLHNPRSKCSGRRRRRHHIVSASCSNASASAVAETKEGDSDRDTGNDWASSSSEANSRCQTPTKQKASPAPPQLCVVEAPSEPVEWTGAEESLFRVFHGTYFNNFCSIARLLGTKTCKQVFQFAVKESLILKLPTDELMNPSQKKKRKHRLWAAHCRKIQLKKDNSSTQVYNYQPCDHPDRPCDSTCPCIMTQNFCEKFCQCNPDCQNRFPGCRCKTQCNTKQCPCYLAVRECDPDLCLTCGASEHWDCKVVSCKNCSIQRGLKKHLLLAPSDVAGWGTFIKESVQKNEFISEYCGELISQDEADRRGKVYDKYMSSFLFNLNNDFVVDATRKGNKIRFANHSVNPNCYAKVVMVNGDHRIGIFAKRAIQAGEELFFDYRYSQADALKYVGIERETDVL
T1 sequence (O75530 whole entry partner): as the sequence (O75530 whole entry partner) above
T1 sequence (Q15022 whole entry partner): as the sequence (Q15022 whole entry partner) above
T1 sequence (Q09028 whole entry partner): as the sequence (Q09028 whole entry partner) above
T1 sequence (Q6ZN18 whole entry partner): as the sequence (Q6ZN18 whole entry partner) above

In general, IC50 refers to the concentration that inhibits the measured activity by half. Lower therefore signals inhibition by little substance. One may read the GI50 as the concentration at which growth is held to half of that of the control. Broadly, the AUC is the area under the concentration-time curve, a measure of exposure. `Cc1cc(C)c(CN2CCc3c(Cl)c4c(c(C)c3C2=O)OC(C)([C@H]2CC[C@H](N(C)C)CC2)O4)c(=O)[nH]1` (mixture of isomers) [Compound 9, 9-chloro-6-((4,6-dimethyl-2-oxo-1,2-dihydropyridin-3-yl)methyl)-2-(trans-4-(dimethylamino)cyclohexyl)-2,4-dimethyl-7,8-dihydro-[1,3]dioxolo[4,5-g]isoquinolin-5(6H)-one]: the figures for the IC50 in series [1] and in series [7] were 16 to 43 nM and 1.5 to 5 nM, respectively. Besides, the GI50 in series [2] (setting [8]) was 2 to 15 nM; in series [3] it was 0.97 nM. The “Residual amount (%) of test compound after 1 hour of reaction, Human” value (“Residual amount (%) of test compound … Human” for short) in series [4] was 57%. The “Residual amount (%) of test compound after 1 hour of reaction, Mouse” value (“Residual amount (%) of test compound … Mouse” for short) in series [5] was determined as 56%. Besides, the AUC in series [6] (male, ICR, mouse, po, 30 mg/kg) is 14900 to 16400 ng·h/mL. Besides, in series [6], the “Half life T1/2” value is given as 2.4~2.3 hr.
Take `Cc1cc(C)c(CN2CCc3c(Cl)c4c(c(C)c3C2=O)OC(C)([C@H]2CC[C@H](N(C)C)CC2)O4)c(=O)[nH]1` (single isomer, unassigned) [Compound 10, 9-chloro-6-((4,6-dimethyl-2-oxo-1,2-dihydropyridin-3-yl)methyl)-2-(trans-4-(dimethylamino)cyclohexyl)-2,4-dimethyl-7,8-dihydro-[1,3]dioxolo[4,5-g]isoquinolin-5(6H)-one]: the values for the IC50 in series [1] and in series [7] were 10 to 21 nM and 0.8 to 1.4 nM, respectively. In addition, the GI50 in series [2] is 2.5 to 13 nM; in series [3], 0.84 nM. Moreover, the “Residual amount (%) of test compound … Human” value in series [4] is 79%. Besides, the “Residual amount (%) of test compound … Mouse” value in series [5] was 55%.
Take `Cc1cc(C)c(CN2CCc3c(C)c4c(c(C)c3C2=O)OC(C)([C@H]2CC[C@H](N(C)C)CC2)O4)c(=O)[nH]1` (single isomer, unassigned) [Compound 40, 6-((4,6-dimethyl-2-oxo-1,2-dihydropyridin-3-yl)methyl)-2-(trans-4-(dimethylamino)cyclohexyl)-2,4,9-trimethyl-7,8-dihydro-[1,3]dioxolo[4,5-g]isoquinolin-5(6H)-one]: the IC50 in series [1] worked out at 28 nM; in series [7] it was 1.8 nM. Moreover, the results for the GI50 in series [2] and in series [3] were 1.8 nM and 0.71 nM, respectively. The “Residual amount (%) of test compound … Human” value in series [4] is reported as 82%. Moreover, in series [5], the “Residual amount (%) of test compound … Mouse” value was 84%.
Consider `Cc1cc(C)c(CN2CCc3c(Br)c4c(c(C)c3C2=O)OC(C)([C@H]2CC[C@H](N(C)C)CC2)O4)c(=O)[nH]1` (single isomer, unassigned) [Compound 50, 9-bromo-6-((4,6-dimethyl-2-oxo-1,2-dihydropyridin-3-yl)methyl)-2-(trans-4-(dimethylamino)cyclohexyl)-2,4-dimethyl-7,8-dihydro-[1,3]dioxolo[4,5-g]isoquinolin-5(6H)-one], for which, in series [2], the GI50 is 419 nM. In series [4], the “Residual amount (%) of test compound … Human” value is recorded as 35%. Besides, the “Residual amount (%) of test compound … Mouse” value in series [5] worked out at 54%. Moreover, in series [6] (30 mg/kg), the “Area under oral curve (AUC)” value is listed as 12,239 ng · hr/mL and the “Half life T1/2” value was found to be 2.5 h.
On to `Cc1cc(C)c(CN2CCc3c(C)c4c(c(Cl)c3C2=O)OC(C)([C@H]2CC[C@H](N(C)C)CC2)O4)c(=O)[nH]1` (stereo partly shown) [Compound 4], for which the half-inhibitory concentration (IC50) in series [1] worked out at 20 nM; in series [7] it was 2.6 nM. In series [2] (setting [8]), the GI50 is 1.9 to 2.6 nM. For the same molecule, in series [4], the “Residual amount (%) of test compound … Human” value is 84%. The “Residual amount (%) of test compound … Mouse” value in series [5] was determined as 79%. Moreover, the AUC in series [6] (male, ICR, mouse, po, 30 mg/kg) came to 770 ng·h/mL.
For the molecule `Cc1cc(C)c(CN2CCc3c(Cl)c4c(c(C)c3C2=O)OC(C)([C@H]2CC[C@@H](N(C)C)CC2)O4)c(=O)[nH]1` (stereo partly drawn) [Compound 12, 9-chloro-6-((4,6-dimethyl-2-oxo-1,2-dihydropyridin-3-yl)methyl)-2-(cis-4-(dimethylamino)cyclohexyl)-2,4-dimethyl-7,8-dihydro-[1,3]dioxolo[4,5-g]isoquinolin-5(6H)-one], the IC50 in series [1] was 23 to 50 nM; in series [7], 3.2 nM. The GI50 in series [2] (setting [8]) was 4.9 to 15 nM; in series [3], 0.66 nM. In addition, in series [4], the “Residual amount (%) of test compound … Human” value turned out to be 57%. Also, in series [5], the “Residual amount (%) of test compound … Mouse” value worked out at 61%.
As for `CN[C@H]1CC[C@H](C2(C)Oc3c(C)c4c(c(Cl)c3O2)CCN(Cc2c(C)cc(C)[nH]c2=O)C4=O)CC1` (stereo partly drawn) [Compound 34, 9-chloro-6-((4,6-dimethyl-2-oxo-1,2-dihydropyridin-3-yl)methyl)-2,4-dimethyl-2-(trans-4-(methylamino)cyclohexyl)-7,8-dihydro-[1,3]dioxolo[4,5-g]isoquinolin-5(6H)-one], the IC50 in series [1] is 9.7 nM; in series [7], 1.4 nM. Further, the GI50 stood at 3.2 nM in series [2] (setting [8]) and 1.48 nM in series [3]. For the same molecule, in series [4], the “Residual amount (%) of test compound … Human” value was found to be 66%. Further, the “Residual amount (%) of test compound … Mouse” value in series [5] was determined as 100%.
As to `COc1cc(C)[nH]c(=O)c1CN1CCc2c(C)c3c(c(C)c2C1=O)OC(C)([C@H]1CC[C@H](N(C)C)CC1)O3` (stereo partly drawn) [Compound 42, 2-(trans-4-(dimethylamino)cyclohexyl)-6-((4-methoxy-6-methyl-2-oxo-1,2-dihydropyridin-3-yl)methyl)-2,4,9-trimethyl-7,8-dihydro-[1,3]dioxolo[4,5-g]isoquinolin-5(6H)-one], the values for the IC50 in series [1] and in series [7] were 31 to 34 nM and 3.4 to 6 nM, respectively. Besides, the GI50 in series [2] (setting [8]) was 2.6 to 8.8 nM; in series [3], 0.97 to 1.41 nM. Besides, the “Residual amount (%) of test compound … Human” value in series [4] was determined as 74%. The “Residual amount (%) of test compound … Mouse” value in series [5] came out at 88%.
For the molecule `CCCc1cc(C)[nH]c(=O)c1CN1CCc2c(C)c3c(c(C)c2C1=O)OC(C)([C@H]1CC[C@H](N(C)C)CC1)O3` (stereo partly shown) [Compound 43], the IC50 amounted to 8.1 nM in series [1] and 1.4 nM in series [7]. Also, the results for the GI50 in series [2] (setting [8]) and in series [3] were 58 nM and 6.76 nM, respectively. In series [4], the “Residual amount (%) of test compound … Human” value is listed as 52%. Besides, the “Residual amount (%) of test compound … Mouse” value in series [5] amounted to 61%.
Turning to `Cc1cc(C)c(CN2CCc3c(Br)c4c(c(C)c3C2=O)OC(C)([C@H]2CC[C@H](N(C)C)CC2)O4)c(=O)[nH]1` (stereo partly drawn) [Compound 48, 9-bromo-6-((4,6-dimethyl-2-oxo-1,2-dihydropyridin-3-yl)methyl)-2-(trans-4-(dimethylamino)cyclohexyl)-2,4-dimethyl-7,8-dihydro-[1,3]dioxolo[4,5-g]isoquinolin-5(6H)-one], the GI50 in series [2] (setting [8]) is 3.7 to 12.4 nM; in series [3], 0.77 nM. For the same molecule, the “Residual amount (%) of test compound … Human” value in series [4] is 54%. Also, the “Residual amount (%) of test compound … Mouse” value in series [5] was 52%. For the same molecule, the AUC in series [6] (male, ICR, mouse, po, 30 mg/kg) lay in the range of 17300 to 18700 ng·h/mL. Also, the half-life in series [6] (male, ICR, mouse, po, 30 mg/kg, read-out: Half life T1/2 (converted)) was 2.8 to 3.2 h.
For the molecule `CN[C@H]1CC[C@H](C2(C)Oc3c(C)c4c(c(Br)c3O2)CCN(Cc2c(C)cc(C)[nH]c2=O)C4=O)CC1` (stereo partly drawn) [Compound 51, 9-bromo-6-((4,6-dimethyl-2-oxo-1,2-dihydropyridin-3-yl)methyl)-2,4-dimethyl-2-(trans-4-(methylamino)cyclohexyl)-7,8-dihydro-[1,3]dioxolo[4,5-g]isoquinolin-5(6H)-one], the IC50 came to 41 nM in series [1] and 1.6 nM in series [7]. Also, the GI50 in series [2] (setting [8]) is 4.4 nM. Further, the “Residual amount (%) of test compound … Human” value in series [4] is on record as 70%. In series [5], the “Residual amount (%) of test compound … Mouse” value was 64%. Moreover, the AUC in series [6] (male, ICR, mouse, po, 30 mg/kg) stood at 1520 ng·h/mL.
